The values that follow come from patent US20070161592A1, “Method of treating fear” (priority 2005, published 2007).

pIC50: −log10 of the molar value. Entries after “also recorded” stand apart in the source; their conditions may differ.

One series has as its system C57BL/6 male mice. The series can be described thus: Mouse fear conditioning (contextual and auditory fear memory, freezing). The series is classed as in vivo. The method, then:
siRNA corresponding to NR2B (sense 5′-GGAUGAGUCCUCCAUGUUCtt-3′ and antisense 5′-GAACAUGGAGGACUCAUCCtt-3′, Silencer Pre-designed siRNA, ID #61879, Ambion, Tex.) was delivered into the ACC by microelectroporation, which was performed as described previously (Wei et al., 2003). Briefly, 0.5 μl of 1:4 mixture of siRNA (2.5 μg/μl) and pEGFP-N1 (1 μg/μl) was injected into the ACC (0.7 mm anterior to Bregma, ±0.4 mm lateral from the midline, 1.8 mm beneath the surface of the skull) (Franklin and Paxinos, 1997) through a 30-gauge injection cannula. Then, square-wave electric pulses (five pulses at 1 Hz, 50 ms duration at 40 V) were delivered through a pair of silver electrodes placed 2 mm anterior and 1 mm posterior to the injection site using a S48 Stimulator (Grass Instruments). Control groups consisted of a group receiving only the electroporation shock, pEGFP-N1, or Silencer Negative control siRNA (#4611, Ambion) and pEGFP-N1. Western blot analysis was performed 4 days after electroporation and electrophysiological recordings were taken 2-4 days after.
Under ketamine and xylazine anesthesia, 24-guage guide cannulas were implanted bilaterally into the ACC (0.7 mm anterior to Bregma, ±0.4 mm lateral from the midline, 1.7 mm beneath the surface of the skull) or dorsal hippocampus (2.0 mm posterior to Bregma, ±1.5 mm lateral from the midline, 1.9 mm beneath the surface of the skull). Mice were given at least 2 weeks to recover after cannula implantation. All procedures were performed in accordance with the requirements of the Animal Studies Committee at the University of Toronto. The 30-gauge injection cannula was 0.1 mm lower than the guide. For intra-ACC infusion, 0.5 μl Ro25-6981 (4 μg/μl) or saline was delivered bilaterally within 90 s using a pump. 15 min later mice were conditioned by one pairing of a tone (2.8 kHz, 85 dB, 30 s) and a foot shock (0.75 mA, 2 s) that terminated at the same time as the tone. For intra-hippocampal infusion, 0.5 μl Ro25-6981 (10 μg/μl) or saline was delivered bilaterally within 90 s. 15 min later mice received one pairing of a tone and a foot shock, as above. One day later, animals were exposed to the conditioning context without a tone for 3 min and freezing responses were scored automatically (Freeze view software, Actrimetrics, Wilmette, Ill.).
NR2B subunit inhibition in adult mice was examined to determine whether this impairs the formation of contextual fear memory. Three days after bilateral siRNA electroporation, mice were trained (or conditioned) and then tested for contextual fear memory by assessing freezing behavior in the same environmental context after 24 hours. There was no difference in baseline freezing or in freezing immediately following the shock/tone pairing between groups; however, there was a significant difference between groups when tested in the contextual environment one day later (n=8 for EGFP only; n=10 for control siRNA; n=8 for shock only; n=11 for NR2B siRNA; one-way ANOVA, p=0.005; FIG. 8C). […] Since the activation of NR2B was suppressed throughout the training and memory test, the roles of NR2B during the acquisition and retrieval of fear memory cannot be distinguished. Recently, electric stimulation of the ACC was reported to induce fear memory one and three days after stimulation (Tang et al., 2005), which implies that the ACC may be involved in the acquisition of fear memory. To directly address this issue, the effect of NR2B blockade using Ro25-6981 was examined. […] In order to rule out any locomotor side-effects, locomotor activity in the open field was tested after bilateral ACC microinjection of Ro25-6981 (n=4) or vehicle (n=4).

In a further series the test system is NR1/NR2A. The note with it: cited from earlier work.
Series [1] has as its system NR2A, NR1, GluR1, and actin. As to the kind of experiment: Western blot of other membrane proteins in ACC after siRNA electroporation. The format is in vivo, mouse. Conditions: four days after electroporation, vs control siRNA. The method, then: Equal amounts of protein from the ACC and hippocampus were separated and electrotransferred onto PDVF membranes (Invitrogen), which were probed with anti-NR2A, anti-NR2B (Chemicon), and anti-PSD-95 (ABR) and with β-actin (Sigma) as a loading control. The membranes were incubated with horseradish peroxidase-conjugated secondary antibodies (anti-mouse IgG for PSD-95 and anti-rabbit IgG for the other primary antibodies), and bands were visualized using an ECL system (Perkin Elmer). Synaptosomal membrane fractions (LP1) were prepared as previously described (Dunah and Standaert, 2001) and solubilized using 1% SDS in TEVP buffer: 10 mM Tris-HCl, pH 7.4, 1 mM EDTA, 1 mM EGTA, 1× protease inhibitor cocktail (Sigma), and 1× phosphatase inhibitor cocktail 1 and 2 (Sigma). […] Results are expressed as means±SEM. […]
To inhibit NR2B expression specifically in the prefrontal cortex, including the ACC, siRNA was bilaterally delivered against NR2B with a reporter plasmid encoding EGFP by microelectroporation (Wei et al., 2003) (FIG. 8A). […] The expression levels of other NMDAR subunits (NR2A and NR1) and AMPA receptor subunit GluR1 were measured, and actin was used as a control in the ACCs of NR2B siRNA and control siRNA electroporated mice.
(In western blotting, separated proteins are transferred to a membrane and probed.)

Where [2] appears, read: mice, 5 μg in 0.5 μl bilaterally into dorsal hippocampi, tested one day after training.

A word on the pIC50: it is the IC50 on a negative log10 scale, so that one unit is a factor of ten. For the molecule `C[C@@H](CN1CCC(Cc2ccccc2)CC1)[C@@H](O)c1ccc(O)cc1` [Ro25-6981], the auditory fear memory entry in the series with C57BL/6 male mice (mice, 2 μg in 0.5 μl per side into the bilateral ACC) is reported as “no difference in auditory fear memory”; in the series on C57BL/6 male mice (setting [2]), “did not affect”. In the series on C57BL/6 male mice (setting [2]), the contextual fear memory entry is “did not impair contextual fear memory; also recorded: did not affect”. Further, the “baseline or immediate freezing behavior” value with C57BL/6 male mice (mice, ACC microinjection) is “did not significantly affect”; in the series with C57BL/6 male mice (mice, hippocampal microinjection) it was “did not significantly affect”. Also, the “contextual fear memory (freezing in the contextual environment)” value with C57BL/6 male mice (mice, microinjection 2 μg in 0.5 μl per side into the bilateral ACC before conditioning) was “decreased contextual fear memory; also recorded: significant reduction in freezing”. In addition, in the series with NR1/NR2A, the negative logarithm of the IC50 (pIC50) is 4.28.
For “NR2B siRNA: siRNA corresponding to NR2B, sense 5′-GGAUGAGUCCUCCAUGUUCtt-3′, antisense 5′-GAACAUGGAGGACUCAUCCtt-3′, Silencer Pre-designed siRNA ID #61879, Ambion (sense GGAUGAGUCCUCCAUGUUCTT; antisense GAACAUGGAGGACUCAUCCTT; chemistry not given here)”, the “expression levels of NR2A, NR1, GluR1, and actin” value in series [1] is given as “not significantly changed”. Also, the “baseline freezing or freezing immediately following the shock/tone pairing” value in the series on C57BL/6 male mice (bilateral siRNA electroporation into ACC) was “no difference”. Besides, the “contextual fear memory (freezing in the contextual environment)” value in the series with C57BL/6 male mice (bilateral siRNA electroporation into ACC, trained three days later, tested after 24 hours) is listed as “impaired contextual fear memory; also recorded: significantly less freezing”.
